Measured values taken from patent US12410152B2, “Oxazole and thioazole-type cullin ring ubiquitin ligase compounds and uses thereof” (Proxygen GmbH, priority 2019, dated 2025).

Tested on: KBM7 WT cells (global proteome)
Assay: Quantitative expression proteomics (TMT isobaric tagging), drug vs DMSO
Format: cell-based, human
Description: The mechanism by which the assayed molecules re-program a functional CRL4B complex based on the data shown could be that drug binding to CUL4B recruits a neo-substrate directly to the cullin backbone. Alternatively, drug binding could stabilize CUL4B function to boost time intervals where a functionally competent CUL4B complexes can be formed. Here, the word “functional” implies that the CUL4B backbone of this complex needs to be neddylated, and a CUL4B associated E2 ubiquitin-conjugating enzyme (UBE2G1) needs to be bound. FIG. 9 outlines one possible mechanism. Both predicted mechanisms of action would result in a functionally altered CRL4B complex, and thus an altered stability of drug-induced (neo-) substrates. In order to identify target proteins with a decreased abundance or, in other words, target proteins that become degraded by CRL4B after drug treatment, global proteome composition was measured using quantitative expression proteomics (TMT-labeling). In brief, KBM7 cells were drug treated for 12 hours, lysed, and subjected to isobaric tagging. Ensuing proteomics analysis quantified a total of 7,903 proteins at a minimum spectral count of 2. […] Data on essentiality are taken from Hart et al., G3, August 2017 (PMID: 28655737).
50×10^6 KBM7^WT cells per condition were collected, washed four times with ice-cold PBS, the supernatant aspirated and pellets snap-frozen in liquid N2. Each washed cell pellet was lysed separately in 40 μL of freshly prepared lysis buffer as previously described (see Mayor-Ruiz et al., Mol Cell 2019)
Offline Fractionation via RP-HPLC at high pH and 2D-RP/RP Liquid Chromatography Mass Spectrometry were performed as previously described (see Mayor-Ruiz et al., Mol Cell 2019).
Acquired raw data files were processed using the Proteome Discoverer 2.2.0 platform, utilizing the Sequest HT database search engine and Percolator validation software node (V3.04) to remove false positives with a false discovery rate (FDR) of 1% on peptide and protein level under strict conditions. Searches were performed with full tryptic digestion against the human SwissProt database v2017.06 with up to two allowed miscleavage sites. Oxidation (+15.9949 Da) of methionine was set as variable modification, whilst carbamidomethylation (+57.0214 Da) of cysteine residues and TMT 6-plex labelling of peptide N-termini and lysine residues were set as fixed modifications. Data was searched with mass tolerances of ±10 ppm and ±0.02 Da on the precursor and fragment ions, respectively. Results were filtered to include peptide spectrum matches (PSMs) with Sequest HT cross-correlation factor (Xcorr) scores of […] and high peptide confidence assigned by Percolator. MS^2 signal-to-noise values (S/N) values of TMT reporter ions were used to estimate peptide/protein abundance changes. PSMs with precursor isolation interference values of ≥ 50% and average TMT-reporter ion S/N≤10 were excluded from quantitation. Only unique peptides were used for TMT quantitation as well as for TOP3 label-free quantitation. Isotopic impurity correction and TMT channel-normalization based on total peptide amount were applied. For statistical analysis and p-value calculation, the integrated ANOVA hypothesis test was used. TMT ratios with p-values below 0.01 were considered as significant. Only proteins with >1 peptide detected and >1 unique peptide detected were considered for further analysis. For the calling of destabilized proteins, a log 2 fold change threshold (drug/DMSO) of −0.3 was applied.
Comparison of overall proteome-wide changes in KBM7 cells treated with IC020772.1 (2.5 μM), IC021313.2 (7 μM) or T6938051 (3.5 μM) for 5 h and 12h, using quantitative proteomics based on isobaric tagging.
The protein names in Table 4, Table 5 and Table 6 refer to the protein names as provided by HUGO Gene Nomenclature Committee (HGNC) database. […]

## O=C(CSc1nc2ccccc2[nH]1)Nc1ccc(Cl)cn1 [IC021313.2]
KBM7 cells, 12 hours, ~10xEC50, 7,903 proteins quantified
  number of proteins significantly downregulated (log2FC < -0.3), destabilized proteins: 839
KBM7 cells, 12 hours, essentiality from Hart et al. 2017
  number of downregulated proteins known to be implicated in KBM7 proliferation (essential for KBM7 viability): 183
Protein AKAP11 (Q9UKA4), essential: false
  logFC (IC021313.2/DMSO): −0.3004
Protein ALKBH3 (Q96Q83-1), essential: false
  logFC (IC021313.2/DMSO): −0.3129
Protein ALKBH4 (Q9NXW9-1), essential: false
  logFC (IC021313.2/DMSO): −0.3111
Protein ATXN7L3B (Q96GX2), essential: false
  logFC (IC021313.2/DMSO): −0.3111
Protein BMT2 (Q1RMZ1), essential: false
  logFC (IC021313.2/DMSO): −0.3111
Protein C10orf88 (Q9H8K7), essential: false
  logFC (IC021313.2/DMSO): −0.3004
Protein CCNC (P24863-1), essential: false
  logFC (IC021313.2/DMSO): −0.3129
Protein CHMP4B (Q9H444), essential: true
  logFC (IC021313.2/DMSO): −0.3129
Protein CIT (O14578-4), essential: false
  logFC (IC021313.2/DMSO): −0.3147
Protein CREB1 (P16220-1), essential: false
  logFC (IC021313.2/DMSO): −0.3147
Protein CUEDC2 (Q9H467), essential: false
  logFC (IC021313.2/DMSO): −0.3129
Protein DCUN1D4 (Q92564-3), essential: false
  logFC (IC021313.2/DMSO): −0.3004
Protein DGCR14 (Q96DF8), essential: true
  logFC (IC021313.2/DMSO): −0.3129
Protein DSG2 (Q14126), essential: false
  logFC (IC021313.2/DMSO): −0.3111
Protein EIF4B (P23588-1), essential: false
  logFC (IC021313.2/DMSO): −0.3129
Protein ENTPD6 (O75354-1), essential: false
  logFC (IC021313.2/DMSO): −0.3004
Protein EPN1 (Q9Y6I3-2), essential: false
  logFC (IC021313.2/DMSO): −0.3022
Protein FADS1 (O60427-1), essential: false
  logFC (IC021313.2/DMSO): −0.3147
Protein FAM122A (Q96E09), essential: true
  logFC (IC021313.2/DMSO): −0.3022
Protein GTF2H1 (P32780-1), essential: true
  logFC (IC021313.2/DMSO): −0.3022
Protein GUCY1A3 (Q02108-1), essential: false
  logFC (IC021313.2/DMSO): −0.3129
Protein KIF15 (Q9NS87-1), essential: false
  logFC (IC021313.2/DMSO): −0.3022
Protein NCAPD2 (Q15021), essential: true
  logFC (IC021313.2/DMSO): −0.3094
Protein NDRG3 (Q9UGV2-1), essential: false
  logFC (IC021313.2/DMSO): −0.3111
Protein NUFIP1 (Q9UHK0), essential: true
  logFC (IC021313.2/DMSO): −0.3129
Protein PFDN5 (Q99471-1), essential: false
  logFC (IC021313.2/DMSO): −0.3111
Protein PHF8 (Q9UPP1-1), essential: false
  logFC (IC021313.2/DMSO): −0.3022
Protein PLSCR1 (O15162-1), essential: false
  logFC (IC021313.2/DMSO): −0.3111
Protein PO1A (Q8NBT0-1), essential: false
  logFC (IC021313.2/DMSO): −0.3022
Protein PPIL4 (Q8WUA2), essential: false
  logFC (IC021313.2/DMSO): −0.3004
Protein PSD4 (Q8NDX1-1), essential: false
  logFC (IC021313.2/DMSO): −0.3022
Protein PUS3 (Q9BZE2), essential: false
  logFC (IC021313.2/DMSO): −0.3022
Protein PVR (P15151-1), essential: false
  logFC (IC021313.2/DMSO): −0.3004
Protein PYM1 (Q9BRP8-1), essential: false
  logFC (IC021313.2/DMSO): −0.3022
Protein RAD54L (Q92698), essential: false
  logFC (IC021313.2/DMSO): −0.3004
Protein RASSF5 (Q8WWW0-2), essential: false
  logFC (IC021313.2/DMSO): −0.3022
Protein RPS17 (P08708), essential: true
  logFC (IC021313.2/DMSO): −0.3094
Protein SKP2 (Q13309-1), essential: false
  logFC (IC021313.2/DMSO): −0.3111
Protein SLC10A4 (Q96EP9), essential: false
  logFC (IC021313.2/DMSO): −0.3111
Protein SLCO4A1 (Q96BD0-1), essential: false
  logFC (IC021313.2/DMSO): −0.3004
Protein SUV39H1 (O43463-2), essential: false
  logFC (IC021313.2/DMSO): −0.3004
Protein TANC2 (Q9HCD6-2), essential: false
  logFC (IC021313.2/DMSO): −0.3129
Protein TFAP4 (Q01664), essential: true
  logFC (IC021313.2/DMSO): −0.3094
Protein USP12 (O75317), essential: false
  logFC (IC021313.2/DMSO): −0.3004
Protein WDR76 (Q9H967), essential: false
  logFC (IC021313.2/DMSO): −0.3004
Protein ZNF770 (Q6IQ21), essential: false
  logFC (IC021313.2/DMSO): −0.3004
Protein ZWILCH (Q9H900-1), essential: false
  logFC (IC021313.2/DMSO): −0.3022
